# Numbers after ± are expanded uncertainties.
# Tests used:
# [1] = 101.33 kPa, Liquid; for thermal conductivity: Hot wire method; for viscosity: Cone and plate viscometry
# [2] = molar heat capacity at constant pressure; conditions: 101.33 kPa, Liquid, Small sample (50 mg) DSC
compound,measurement,setting,value
CCCC[P+](C)(CCCC)CCCC.COS(=O)(=O)[O-] [tributylmethylphosphonium methyl sulfate],thermal conductivity,[1]; 283.34 K,0.157 ± 0.02 W/m/K
same,thermal conductivity,[1]; 293.28 K,0.156 ± 0.02 W/m/K
same,thermal conductivity,[1]; 298.36 K,0.155 ± 0.02 W/m/K
same,thermal conductivity,[1]; 303.45 K,0.155 ± 0.02 W/m/K
same,thermal conductivity,[1]; 313.5 K,0.153 ± 0.02 W/m/K
same,thermal conductivity,[1]; 323.6 K,0.153 ± 0.02 W/m/K
same,thermal conductivity,[1]; 333.58 K,0.153 ± 0.02 W/m/K
same,thermal conductivity,[1]; 343.61 K,0.153 ± 0.02 W/m/K
same,thermal conductivity,[1]; 353.51 K,0.153 ± 0.02 W/m/K
CCCCCCCCCCCCCC[P+](CCCCCC)(CCCCCC)CCCCCC.FC(F)(F)C(F)(F)[P-](F)(F)(F)(C(F)(F)C(F)(F)F)C(F)(F)C(F)(F)F,thermal conductivity,[1]; 282.19 K,0.126 ± 0.02 W/m/K
same,thermal conductivity,[1]; 292.99 K,0.125 ± 0.02 W/m/K
same,thermal conductivity,[1]; 298.41 K,0.125 ± 0.02 W/m/K
same,thermal conductivity,[1]; 303.54 K,0.125 ± 0.02 W/m/K
same,thermal conductivity,[1]; 314.37 K,0.123 ± 0.02 W/m/K
same,thermal conductivity,[1]; 325.65 K,0.123 ± 0.02 W/m/K
same,thermal conductivity,[1]; 334.58 K,0.123 ± 0.02 W/m/K
same,thermal conductivity,[1]; 344.18 K,0.123 ± 0.02 W/m/K
same,thermal conductivity,[1]; 355.07 K,0.121 ± 0.02 W/m/K
CC(CC(C)(C)C)CP(=O)([O-])CC(C)CC(C)(C)C.CCCCCCCCCCCCCC[P+](CCCCCC)(CCCCCC)CCCCCC,thermal conductivity,[1]; 282.47 K,0.137 ± 0.02 W/m/K
same,thermal conductivity,[1]; 292.94 K,0.136 ± 0.02 W/m/K
same,thermal conductivity,[1]; 298.04 K,0.135 ± 0.02 W/m/K
same,viscosity,[1]; 298.15 K,847.3 mPa·s
same,thermal conductivity,[1]; 303.15 K,0.135 ± 0.02 W/m/K
same,viscosity,[1]; 313.15 K,568.54 mPa·s
same,thermal conductivity,[1]; 313.45 K,0.133 ± 0.02 W/m/K
same,viscosity,[1]; 323.15 K,387.46 mPa·s
same,thermal conductivity,[1]; 323.45 K,0.132 ± 0.02 W/m/K
same,viscosity,[1]; 333.15 K,125.61 mPa·s
same,thermal conductivity,[1]; 333.55 K,0.131 ± 0.02 W/m/K
same,thermal conductivity,[1]; 343.59 K,0.131 ± 0.02 W/m/K
same,thermal conductivity,[1]; 353.62 K,0.131 ± 0.02 W/m/K
same,molar heat capacity at constant pressure,[2]; 293.15 K,1619.2 ± 69 J/K/mol
same,molar heat capacity at constant pressure,[2]; 298.15 K,1634.7 ± 70 J/K/mol
same,molar heat capacity at constant pressure,[2]; 303.15 K,1644.7 ± 70 J/K/mol
same,molar heat capacity at constant pressure,[2]; 308.15 K,1655.6 ± 70 J/K/mol
same,molar heat capacity at constant pressure,[2]; 313.15 K,1667.2 ± 70 J/K/mol
same,molar heat capacity at constant pressure,[2]; 318.15 K,1678 ± 71 J/K/mol
same,molar heat capacity at constant pressure,[2]; 323.15 K,1688 ± 72 J/K/mol
same,molar heat capacity at constant pressure,[2]; 328.15 K,1698.1 ± 72 J/K/mol
same,molar heat capacity at constant pressure,[2]; 333.15 K,1708.2 ± 73 J/K/mol
same,molar heat capacity at constant pressure,[2]; 338.15 K,1717.4 ± 73 J/K/mol
same,molar heat capacity at constant pressure,[2]; 343.15 K,1725.9 ± 73 J/K/mol
same,molar heat capacity at constant pressure,[2]; 348.15 K,1736 ± 73 J/K/mol
same,molar heat capacity at constant pressure,[2]; 353.15 K,1745.3 ± 74 J/K/mol
same,molar heat capacity at constant pressure,[2]; 358.15 K,1754.5 ± 74 J/K/mol
same,molar heat capacity at constant pressure,[2]; 363.15 K,1763.8 ± 75 J/K/mol
CCCCCCCCCCCCCC[P+](CCCCCC)(CCCCCC)CCCCCC.O=S(=O)([N-]S(=O)(=O)C(F)(F)F)C(F)(F)F,thermal conductivity,[1]; 285.65 K,0.139 ± 0.02 W/m/K
same,thermal conductivity,[1]; 293.14 K,0.138 ± 0.02 W/m/K
same,thermal conductivity,[1]; 297.72 K,0.137 ± 0.02 W/m/K
same,thermal conductivity,[1]; 302.37 K,0.137 ± 0.02 W/m/K
same,thermal conductivity,[1]; 313.04 K,0.135 ± 0.02 W/m/K
same,thermal conductivity,[1]; 323.58 K,0.134 ± 0.02 W/m/K
same,thermal conductivity,[1]; 333.55 K,0.135 ± 0.02 W/m/K
same,molar heat capacity at constant pressure,[2]; 333.15 K,1367.6 ± 58 J/K/mol
same,molar heat capacity at constant pressure,[2]; 338.15 K,1372.2 ± 58 J/K/mol
same,molar heat capacity at constant pressure,[2]; 343.15 K,1378.3 ± 59 J/K/mol
same,molar heat capacity at constant pressure,[2]; 348.15 K,1386.7 ± 59 J/K/mol
same,molar heat capacity at constant pressure,[2]; 353.15 K,1395.1 ± 59 J/K/mol
same,molar heat capacity at constant pressure,[2]; 358.15 K,1403.5 ± 60 J/K/mol
same,molar heat capacity at constant pressure,[2]; 363.15 K,1413.4 ± 60 J/K/mol
same,molar heat capacity at constant pressure,[2]; 368.15 K,1426.4 ± 60 J/K/mol
same,molar heat capacity at constant pressure,[2]; 373.15 K,1435.6 ± 61 J/K/mol
same,molar heat capacity at constant pressure,[2]; 378.15 K,1440.9 ± 61 J/K/mol
same,molar heat capacity at constant pressure,[2]; 383.15 K,1450.1 ± 62 J/K/mol
same,molar heat capacity at constant pressure,[2]; 388.15 K,1457.7 ± 62 J/K/mol
same,molar heat capacity at constant pressure,[2]; 393.15 K,1465.4 ± 62 J/K/mol
same,molar heat capacity at constant pressure,[2]; 398.15 K,1473.8 ± 63 J/K/mol
same,molar heat capacity at constant pressure,[2]; 403.15 K,1480.6 ± 63 J/K/mol
same,molar heat capacity at constant pressure,[2]; 408.15 K,1488.3 ± 63 J/K/mol
same,molar heat capacity at constant pressure,[2]; 413.15 K,1495.9 ± 63 J/K/mol
same,molar heat capacity at constant pressure,[2]; 418.15 K,1502.8 ± 63 J/K/mol
same,molar heat capacity at constant pressure,[2]; 423.15 K,1509.7 ± 64 J/K/mol
same,molar heat capacity at constant pressure,[2]; 428.15 K,1517.3 ± 64 J/K/mol
same,molar heat capacity at constant pressure,[2]; 438.15 K,1533.4 ± 65 J/K/mol
same,molar heat capacity at constant pressure,[2]; 443.15 K,1536.4 ± 65 J/K/mol
same,molar heat capacity at constant pressure,[2]; 448.15 K,1542.5 ± 66 J/K/mol
same,molar heat capacity at constant pressure,[2]; 453.15 K,1550.2 ± 66 J/K/mol
same,molar heat capacity at constant pressure,[2]; 458.15 K,1556.3 ± 66 J/K/mol
same,molar heat capacity at constant pressure,[2]; 463.15 K,1560.9 ± 66 J/K/mol

# — the NIST ThermoML archive (doi:10.1016/j.jct.2013.04.013)
